Assay results taken from ChEMBL document CHEMBL4507320, “Data for DCP probe NVS-MALT1” (2021).
Calls of active or inactive are those of the source. The rule behind the calls is not given here.

Tests used:
[1] = biological target: T1, Mucosa-associated lymphoid tissue lymphoma translocation protein 1 (Homo sapiens, UniProt Q9UDY8); assay: Human biochemical (TR-FRET) assay (high salt)
T1 sequence (Q9UDY8 whole entry): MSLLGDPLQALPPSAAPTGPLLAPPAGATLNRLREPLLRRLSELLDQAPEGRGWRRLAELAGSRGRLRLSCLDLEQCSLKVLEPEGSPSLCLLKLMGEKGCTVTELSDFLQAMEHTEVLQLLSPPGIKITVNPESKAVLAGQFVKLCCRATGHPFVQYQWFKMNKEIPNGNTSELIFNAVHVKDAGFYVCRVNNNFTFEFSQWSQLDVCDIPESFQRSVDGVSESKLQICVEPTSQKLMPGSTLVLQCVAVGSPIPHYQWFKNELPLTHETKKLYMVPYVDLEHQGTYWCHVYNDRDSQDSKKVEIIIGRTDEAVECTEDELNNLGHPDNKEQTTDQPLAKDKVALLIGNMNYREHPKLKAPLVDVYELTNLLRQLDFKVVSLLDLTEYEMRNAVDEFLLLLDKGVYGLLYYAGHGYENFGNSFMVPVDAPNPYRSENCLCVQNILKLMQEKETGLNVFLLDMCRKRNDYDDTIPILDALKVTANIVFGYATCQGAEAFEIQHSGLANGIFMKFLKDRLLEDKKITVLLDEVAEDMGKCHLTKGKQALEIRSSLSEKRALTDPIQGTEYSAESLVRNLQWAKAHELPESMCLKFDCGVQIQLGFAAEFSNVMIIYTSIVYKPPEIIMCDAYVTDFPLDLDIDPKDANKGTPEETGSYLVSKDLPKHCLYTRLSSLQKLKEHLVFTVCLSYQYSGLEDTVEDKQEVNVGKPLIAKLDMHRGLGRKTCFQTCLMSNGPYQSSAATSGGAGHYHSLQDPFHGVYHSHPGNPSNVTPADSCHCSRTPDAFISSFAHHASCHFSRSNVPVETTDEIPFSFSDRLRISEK

[2] = test system: Tyrosine-protein kinase ABL1 (Homo sapiens), P00519 [H396P]; conditions: Compound concentration 1000.0 nM
[3] = test system: Tyrosine-protein kinase ABL1 (Homo sapiens), P00519 [T315I]; conditions: Compound concentration 1000.0 nM
[4] = biological target: RAC-alpha serine/threonine-protein kinase (Homo sapiens) (UniProt P31749); conditions: Compound concentration 1000.0 nM
[5] = biological target: NUAK family SNF1-like kinase 1 (Homo sapiens) (UniProt O60285); conditions: Compound concentration 1000.0 nM
NUAK family SNF1-like kinase 1 (Homo sapiens), sequence (O60285 whole entry): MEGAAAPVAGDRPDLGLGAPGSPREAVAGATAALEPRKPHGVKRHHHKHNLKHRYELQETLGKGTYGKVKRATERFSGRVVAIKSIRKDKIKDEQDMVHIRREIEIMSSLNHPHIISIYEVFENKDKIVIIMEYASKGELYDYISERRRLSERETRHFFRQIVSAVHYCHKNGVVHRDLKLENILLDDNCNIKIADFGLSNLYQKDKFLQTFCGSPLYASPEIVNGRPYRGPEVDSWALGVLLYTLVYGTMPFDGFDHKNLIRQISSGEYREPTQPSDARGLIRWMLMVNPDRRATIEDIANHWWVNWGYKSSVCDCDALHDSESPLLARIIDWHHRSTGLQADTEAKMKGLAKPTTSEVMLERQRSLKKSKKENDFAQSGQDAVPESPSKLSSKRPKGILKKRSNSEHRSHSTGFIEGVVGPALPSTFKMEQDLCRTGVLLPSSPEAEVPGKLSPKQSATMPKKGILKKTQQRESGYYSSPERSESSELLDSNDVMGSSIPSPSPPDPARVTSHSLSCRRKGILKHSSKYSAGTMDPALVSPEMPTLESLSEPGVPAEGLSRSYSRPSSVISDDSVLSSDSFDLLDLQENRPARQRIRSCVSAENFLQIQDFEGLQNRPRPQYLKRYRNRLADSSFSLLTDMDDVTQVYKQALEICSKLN

[6] = biological target: Aurora kinase B (Homo sapiens) (UniProt Q96GD4); conditions: Compound concentration 1000.0 nM
[7] = biological target: Cyclin-dependent kinase 11A (Homo sapiens) (UniProt Q9UQ88); conditions: Compound concentration 1000.0 nM
[8] = biological target: Cyclin-dependent kinase 13 (Homo sapiens) (UniProt Q14004); conditions: Compound concentration 1000.0 nM
Cyclin-dependent kinase 13 (Homo sapiens), sequence (Q14004 whole entry, looked up): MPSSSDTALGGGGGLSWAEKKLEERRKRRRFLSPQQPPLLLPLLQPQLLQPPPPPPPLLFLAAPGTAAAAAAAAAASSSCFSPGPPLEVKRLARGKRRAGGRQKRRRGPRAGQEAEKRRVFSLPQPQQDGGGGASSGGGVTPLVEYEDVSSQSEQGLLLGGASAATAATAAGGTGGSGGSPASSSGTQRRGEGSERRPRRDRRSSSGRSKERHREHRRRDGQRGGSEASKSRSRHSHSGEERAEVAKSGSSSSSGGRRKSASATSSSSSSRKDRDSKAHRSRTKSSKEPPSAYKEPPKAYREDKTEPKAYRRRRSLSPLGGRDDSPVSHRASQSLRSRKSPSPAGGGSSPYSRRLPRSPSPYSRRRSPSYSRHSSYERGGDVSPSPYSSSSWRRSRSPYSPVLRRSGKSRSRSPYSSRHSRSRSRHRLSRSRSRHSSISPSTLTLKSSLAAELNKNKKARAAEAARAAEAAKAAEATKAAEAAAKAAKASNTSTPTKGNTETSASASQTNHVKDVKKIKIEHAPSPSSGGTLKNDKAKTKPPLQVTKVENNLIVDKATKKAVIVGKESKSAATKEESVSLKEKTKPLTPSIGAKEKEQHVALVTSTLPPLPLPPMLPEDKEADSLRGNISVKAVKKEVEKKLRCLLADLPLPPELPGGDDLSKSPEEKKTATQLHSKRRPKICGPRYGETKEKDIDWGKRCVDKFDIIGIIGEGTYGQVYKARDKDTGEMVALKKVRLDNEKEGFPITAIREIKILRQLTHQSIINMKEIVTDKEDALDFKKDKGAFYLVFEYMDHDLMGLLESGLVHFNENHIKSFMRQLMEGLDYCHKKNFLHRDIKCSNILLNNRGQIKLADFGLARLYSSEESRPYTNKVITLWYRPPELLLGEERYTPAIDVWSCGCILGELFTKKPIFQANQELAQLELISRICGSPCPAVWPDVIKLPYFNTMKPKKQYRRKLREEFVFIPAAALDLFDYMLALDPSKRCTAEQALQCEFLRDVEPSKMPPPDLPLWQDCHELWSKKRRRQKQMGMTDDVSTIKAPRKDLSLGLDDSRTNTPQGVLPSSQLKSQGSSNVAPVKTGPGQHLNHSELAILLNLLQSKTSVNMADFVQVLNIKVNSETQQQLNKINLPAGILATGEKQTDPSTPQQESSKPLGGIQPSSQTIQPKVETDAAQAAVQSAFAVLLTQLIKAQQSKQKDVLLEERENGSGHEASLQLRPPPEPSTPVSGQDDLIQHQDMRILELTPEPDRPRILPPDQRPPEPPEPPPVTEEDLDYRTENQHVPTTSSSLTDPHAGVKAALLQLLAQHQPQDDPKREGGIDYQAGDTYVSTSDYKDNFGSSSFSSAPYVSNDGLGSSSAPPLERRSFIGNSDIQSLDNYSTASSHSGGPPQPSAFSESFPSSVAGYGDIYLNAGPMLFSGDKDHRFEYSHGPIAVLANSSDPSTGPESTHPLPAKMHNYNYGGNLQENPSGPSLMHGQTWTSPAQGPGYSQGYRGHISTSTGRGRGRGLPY

[9] = biological target: Cyclin-dependent kinase 2 (Homo sapiens) (UniProt P24941); conditions: Compound concentration 1000.0 nM
[10] = biological target: Dual specificity protein kinase CLK2 (Homo sapiens) (UniProt P49760); conditions: Compound concentration 1000.0 nM
[11] = biological target: Casein kinase I isoform gamma-1 (Homo sapiens) (UniProt Q9HCP0); conditions: Compound concentration 1000.0 nM
[12] = biological target: Ephrin type-A receptor 1 (Homo sapiens) (UniProt P21709); conditions: Compound concentration 1000.0 nM
[13] = biological target: Ephrin type-B receptor 3 (Homo sapiens) (UniProt P54753); conditions: Compound concentration 1000.0 nM
[14] = biological target: Mitogen-activated protein kinase 7 (Homo sapiens) (UniProt Q13164); conditions: Compound concentration 1000.0 nM
[15] = biological target: Focal adhesion kinase 1 (Homo sapiens) (UniProt Q05397); conditions: Compound concentration 1000.0 nM
[16] = biological target: Fibroblast growth factor receptor 3 (Homo sapiens) (UniProt P22607); conditions: Compound concentration 1000.0 nM
[17] = test system: Receptor-type tyrosine-protein kinase FLT3 (Homo sapiens), P36888 [D835V]; conditions: Compound concentration 1000.0 nM
[18] = biological target: Homeodomain-interacting protein kinase 4 (Homo sapiens) (UniProt Q8NE63); conditions: Compound concentration 1000.0 nM
[19] = test system: Mast/stem cell growth factor receptor Kit (Homo sapiens), P10721 [V559D]; conditions: Compound concentration 1000.0 nM
[20] = biological target: Mitogen-activated protein kinase kinase kinase 15 (Homo sapiens) (UniProt Q6ZN16); conditions: Compound concentration 1000.0 nM
[21] = biological target: Serine/threonine-protein kinase NLK (Homo sapiens) (UniProt Q9UBE8); conditions: Compound concentration 1000.0 nM
[22] = biological target: Phosphatidylinositol 5-phosphate 4-kinase type-2 beta (Homo sapiens) (UniProt P78356); conditions: Compound concentration 1000.0 nM
[23] = biological target: Serine/threonine-protein kinase PLK3 (Homo sapiens) (UniProt Q9H4B4); conditions: Compound concentration 1000.0 nM
[24] = biological target: Serine/threonine-protein kinase PLK4 (Homo sapiens) (UniProt O00444); conditions: Compound concentration 1000.0 nM
[25] = test system: Proto-oncogene tyrosine-protein kinase receptor Ret (Homo sapiens), P07949 [V804L]; conditions: Compound concentration 1000.0 nM
[26] = biological target: Receptor-interacting serine/threonine-protein kinase 2 (Homo sapiens) (UniProt O43353); conditions: Compound concentration 1000.0 nM
Receptor-interacting serine/threonine-protein kinase 2 (Homo sapiens), sequence (O43353 whole entry): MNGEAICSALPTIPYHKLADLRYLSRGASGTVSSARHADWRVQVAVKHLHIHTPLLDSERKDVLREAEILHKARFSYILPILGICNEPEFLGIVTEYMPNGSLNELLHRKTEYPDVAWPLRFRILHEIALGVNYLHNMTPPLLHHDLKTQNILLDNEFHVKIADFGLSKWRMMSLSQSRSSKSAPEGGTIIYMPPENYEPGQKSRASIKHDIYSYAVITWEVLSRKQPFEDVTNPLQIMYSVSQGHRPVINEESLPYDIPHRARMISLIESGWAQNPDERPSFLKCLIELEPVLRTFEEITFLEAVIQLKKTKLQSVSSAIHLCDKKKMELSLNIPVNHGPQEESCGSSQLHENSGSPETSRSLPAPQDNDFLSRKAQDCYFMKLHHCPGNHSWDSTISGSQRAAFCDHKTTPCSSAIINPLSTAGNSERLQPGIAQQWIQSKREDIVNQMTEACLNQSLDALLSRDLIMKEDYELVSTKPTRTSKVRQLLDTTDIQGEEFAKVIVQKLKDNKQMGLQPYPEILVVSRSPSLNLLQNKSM

[27] = biological target: Ribosomal protein S6 kinase alpha-4 (Homo sapiens) (UniProt O75676); conditions: Compound concentration 1000.0 nM
[28] = biological target: Ribosomal protein S6 kinase alpha-3 (Homo sapiens) (UniProt P51812); conditions: Compound concentration 1000.0 nM
[29] = biological target: STE20-like serine/threonine-protein kinase (Homo sapiens) (UniProt Q9H2G2); conditions: Compound concentration 1000.0 nM
STE20-like serine/threonine-protein kinase (Homo sapiens), sequence (Q9H2G2 whole entry, looked up): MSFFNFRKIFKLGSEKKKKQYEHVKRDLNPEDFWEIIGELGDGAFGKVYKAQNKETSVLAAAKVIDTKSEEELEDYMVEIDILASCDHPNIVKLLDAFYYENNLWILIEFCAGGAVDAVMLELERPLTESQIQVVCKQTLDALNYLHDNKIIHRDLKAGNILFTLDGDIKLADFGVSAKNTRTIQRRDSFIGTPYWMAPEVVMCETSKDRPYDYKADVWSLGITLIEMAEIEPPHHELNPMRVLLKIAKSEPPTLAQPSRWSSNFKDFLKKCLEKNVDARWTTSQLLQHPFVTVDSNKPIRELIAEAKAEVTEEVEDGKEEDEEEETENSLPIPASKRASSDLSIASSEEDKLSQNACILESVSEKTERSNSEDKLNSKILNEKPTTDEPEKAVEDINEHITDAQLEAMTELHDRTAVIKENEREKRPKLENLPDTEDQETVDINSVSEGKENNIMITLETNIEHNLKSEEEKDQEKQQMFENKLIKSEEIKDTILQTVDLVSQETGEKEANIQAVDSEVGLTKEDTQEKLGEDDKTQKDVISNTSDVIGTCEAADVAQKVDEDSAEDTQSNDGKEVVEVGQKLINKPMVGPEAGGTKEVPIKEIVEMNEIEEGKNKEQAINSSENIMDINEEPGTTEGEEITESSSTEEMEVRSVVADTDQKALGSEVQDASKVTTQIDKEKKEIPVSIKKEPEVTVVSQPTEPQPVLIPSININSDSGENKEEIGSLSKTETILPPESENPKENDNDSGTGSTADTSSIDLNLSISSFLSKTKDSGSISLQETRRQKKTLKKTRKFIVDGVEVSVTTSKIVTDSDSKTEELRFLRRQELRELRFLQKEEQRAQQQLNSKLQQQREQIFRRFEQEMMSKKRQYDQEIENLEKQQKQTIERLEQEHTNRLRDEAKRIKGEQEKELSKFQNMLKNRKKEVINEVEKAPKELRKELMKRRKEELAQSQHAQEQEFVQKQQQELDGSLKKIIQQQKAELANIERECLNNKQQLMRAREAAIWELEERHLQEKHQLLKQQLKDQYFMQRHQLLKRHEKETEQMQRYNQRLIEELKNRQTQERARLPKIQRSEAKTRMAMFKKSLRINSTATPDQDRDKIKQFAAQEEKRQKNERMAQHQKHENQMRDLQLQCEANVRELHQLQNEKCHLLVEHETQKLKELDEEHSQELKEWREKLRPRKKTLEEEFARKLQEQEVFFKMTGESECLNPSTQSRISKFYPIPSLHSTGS

[30] = biological target: SNF-related serine/threonine-protein kinase (Homo sapiens) (UniProt Q9NRH2); conditions: Compound concentration 1000.0 nM
[31] = biological target: Serine/threonine-protein kinase VRK2 (Homo sapiens) (UniProt Q86Y07); conditions: Compound concentration 1000.0 nM
[32] = biological target: Mitogen-activated protein kinase kinase kinase 19 (Homo sapiens) (UniProt Q56UN5); conditions: Compound concentration 1000.0 nM
[33] = biological target: D(3) dopamine receptor (Homo sapiens) (UniProt P35462); conditions: Compound concentration 10.0 uM
D(3) dopamine receptor (Homo sapiens), sequence (P35462 whole entry): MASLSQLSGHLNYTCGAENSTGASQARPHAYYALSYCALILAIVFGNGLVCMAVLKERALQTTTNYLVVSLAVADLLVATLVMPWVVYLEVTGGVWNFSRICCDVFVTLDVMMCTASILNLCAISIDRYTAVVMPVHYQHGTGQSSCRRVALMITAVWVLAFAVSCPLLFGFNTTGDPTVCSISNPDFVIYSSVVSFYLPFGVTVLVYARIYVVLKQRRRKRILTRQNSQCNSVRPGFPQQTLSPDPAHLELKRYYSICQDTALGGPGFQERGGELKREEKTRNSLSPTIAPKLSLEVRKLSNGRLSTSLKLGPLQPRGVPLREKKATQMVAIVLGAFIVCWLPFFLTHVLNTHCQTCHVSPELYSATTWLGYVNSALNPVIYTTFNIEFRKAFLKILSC

[34] = biological target: Alpha-1B adrenergic receptor (Homo sapiens) (UniProt P35368); conditions: Compound concentration 10.0 uM
Alpha-1B adrenergic receptor (Homo sapiens), sequence (P35368 whole entry): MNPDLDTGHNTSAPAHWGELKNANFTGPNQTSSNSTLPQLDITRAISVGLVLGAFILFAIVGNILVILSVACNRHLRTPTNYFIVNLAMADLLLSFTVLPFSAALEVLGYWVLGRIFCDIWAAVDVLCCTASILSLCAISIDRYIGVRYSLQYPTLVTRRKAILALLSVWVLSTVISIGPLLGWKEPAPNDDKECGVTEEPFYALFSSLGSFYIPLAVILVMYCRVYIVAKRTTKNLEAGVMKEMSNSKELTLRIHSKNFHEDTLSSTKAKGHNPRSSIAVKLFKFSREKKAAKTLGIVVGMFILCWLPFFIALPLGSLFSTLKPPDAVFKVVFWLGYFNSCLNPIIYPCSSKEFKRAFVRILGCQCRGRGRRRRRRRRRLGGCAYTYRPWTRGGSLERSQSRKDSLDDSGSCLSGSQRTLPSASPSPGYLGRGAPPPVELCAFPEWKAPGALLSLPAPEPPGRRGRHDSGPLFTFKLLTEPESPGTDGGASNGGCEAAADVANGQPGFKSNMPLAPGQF

With `CO[C@@H](C)c1c(Nc2ccc([C@@H](N(C)C(=O)C3CCS(=O)(=O)CC3)C(F)(F)F)cc2)cnc2cc(Cl)nn12` [NVS-MALT1-C] the IC50 [1] was 190 nM (active), the residual activity [2] was 98% and the residual activity [3] was 78%. The residual activity [4] was 89%, the residual activity [5] was 99% and the residual activity [6] was 74%. For the same compound, the residual activity [7] was 100%, the residual activity [8] was 100% and the residual activity [9] was 100%. It also gave a residual activity [10] of 100%, a residual activity [11] of 99% and a residual activity [12] of 97%. The residual activity [13] was 100%, the residual activity [14] was 100% and the residual activity [15] was 90%. The residual activity [16] was 90%, the residual activity [17] was 52% and the residual activity [18] was 100%. It also gave a residual activity [19] of 100%, a residual activity [20] of 100% and a residual activity [21] of 84%. It also gave a residual activity [22] of 100%, a residual activity [23] of 84% and a residual activity [24] of 100%. For the same compound, the residual activity [25] was 78%, the residual activity [26] was 83% and the residual activity [27] was 94%. The residual activity [28] was 100%, the residual activity [29] was 83% and the residual activity [30] was 100%. It also gave a residual activity [31] of 100%, a residual activity [32] of 77% and an inhibition [33] of -5.92%. For the same compound, the inhibition [34] was 5.97%.
For `CO[C@@H](C)c1c(Nc2ccc([C@H](N(C)C(=O)C3CCS(=O)(=O)CC3)C(F)(F)F)cc2)cnc2cc(Cl)nn12` [NVS-MALT1], the IC50 [1] was 2.4 nM (active), the residual activity [2] was 100% and the residual activity [3] was 87%. It also gave a residual activity [4] of 100%, a residual activity [5] of 98% and a residual activity [6] of 91%. For the same compound, the residual activity [7] was 93%, the residual activity [8] was 100% and the residual activity [9] was 88%. It also gave a residual activity [10] of 100%, a residual activity [11] of 100% and a residual activity [12] of 100%. It also gave a residual activity [13] of 100%, a residual activity [14] of 92% and a residual activity [15] of 85%. The residual activity [16] was 88%, the residual activity [17] was 59% and the residual activity [18] was 72%. The residual activity [19] was 100%, the residual activity [20] was 100% and the residual activity [21] was 83%. It also gave a residual activity [22] of 100%, a residual activity [23] of 86% and a residual activity [24] of 100%. For the same compound, the residual activity [25] was 86%, the residual activity [26] was 74% and the residual activity [27] was 86%. For the same compound, the residual activity [28] was 87%, the residual activity [29] was 81% and the residual activity [30] was 100%. The residual activity [31] was 100%, the residual activity [32] was 91% and the inhibition [33] was -4.43%. For the same compound, the inhibition [34] was 27.6%.
